Measurements from patent US20070092474A1, “Carnitine salt, preliposome which contains it and dermocosmetic formula for topical use based upon said carnitine salt” (priority 2003, published 2007).
Several values for one entry are separate records, joined by “and”; a condition that tells them apart may be missing. Equal entries are not always repeated.

Test system: skin blemishes caused by cellulite and localised adiposity
Assay: Liquid crystal contact thermography of the thighs, clinical score of cellulite stage
Format: in vivo, female volunteers
Set-up: key: 9: IV SERIOUS; 8: IV AVERAGE; 7: IV INITIAL; 6: III SERIOUS; 5: III AVERAGE; 4: III INITIAL; 3: II SERIOUS; 2: II AVERAGE; 1: II INITIAL
Settings: clinical score per volunteer, MEDIA = mean
Method: A dermatological test was carried out on 25 female volunteers between 18 and 65 years of age, with the backing of the Department of Physiological and Pharmacological Sciences of the university of Pavia. The investigation aimed to check the modification of three anatomical-physiological parameters, qualifying the unaesthetic-functional aspect connected to the manifestation of so-called cellulite and subcutaneous hypertriglyceridaemia: measurement of the skin folds, measurement of the circumference of the thighs, thermographic skin measurement.
The test stretched out over 60 days with the continual daily application of the aforementioned preparation of cosmetic gel. The measurements were carried out after 15, 30 and 60 days. The detail of the test protocol and of the results obtained is shown hereafter.
25 female volunteers aged between 18 and 65, with the presence of skin blemishes caused by cellulite and localised adiposity, were selected according to the following criteria: good general state of health, absence of skin pathologies, not being under medication, commitment not to vary the normal daily routine, no medical history of atopy.
The samples were tested by uniformly applying them on “Glute SX Glute DJ (Femoris Posto SX Femoris Posto DX Femoris Ant. SX Femoris Ant. DX” every day at least once per day for the entire duration of the test.
At the time of inclusion in the study and during the subsequent checks after 15 days (T15), after 30 days (T30) and after 60 days (T60) of treatment the following instrumental measurements were taken: • plicometry (through a plicometer) • thigh circumference (through a measuring tape broken into millimetres) • contact thermography (through liquid crystal thermographic plates).
For its part, thermography allows the extension and the gravity of the microcirculatory skin damage and, consequently, the subcutaneous damage, to be evaluated based upon the regional skin temperature variations. Such temperature variations reveal the presence of subschemic areas (cold areas, due to regional hypothermia) or of phenomena of capillary-venous stasis (hot areas). The diagnostic properties of thermography are relative to the recognition of maldistribution of microcirculation. In particular, “liquid crystal contact thermography” was used, in which the property of cholesteric liquid crystals (of which the plates are made up) of modifying their spatial arrangement according to the temperature is exploited; each spatial modification corresponds to a different refraction of the light rays which thus assume different colours according to the incidence of the light on the faces of the cholesteric microcrystals: in practice, when the thermographic plates are placed upon the skin of the zone to be investigated, these assume different colourations according to the skin temperature. Conventionally, the thermographic images observed during the course of the different stages of evolution of the Edematous fibrosclerotic panniculopathy from stasis of the lower limbs can be classified in four, or more, thermographic stages; the latter approximately correspond to the gravity of the four istologic stages in which the moments of evolution of the panniculosis are divided.

carnitine hydroxycitrate [carnitine hydroxy citrate]
LEFT THIGH THERMOGRAPHY 1/3 T0: 5 (9×) and 4 (3×) and 7 (4×) and 2 and 6 (7×) and 3 | LEFT THIGH THERMOGRAPHY 1/3 T0 (mean): 5.3 | LEFT THIGH THERMOGRAPHY 1/3 T15: 5 (9×) and 4 (5×) and 3 (3×) and 7 (2×) and 2 and 6 (5×) | LEFT THIGH THERMOGRAPHY 1/3 T15 (mean): 4.8 | LEFT THIGH THERMOGRAPHY 1/3 T30: 2 (7×) and 4 (10×) and 3 (2×) and 6 (3×) and 5 (3×) | LEFT THIGH THERMOGRAPHY 1/3 T30 (mean): 3.7 | LEFT THIGH THERMOGRAPHY 1/3 T60: 2 (11×) and 3 (7×) and 4 (4×) and 5 (2×) and 6 | LEFT THIGH THERMOGRAPHY 1/3 T60 (mean): 3.0 | LEFT THIGH THERMOGRAPHY 2/3 T0: 4 (5×) and 5 (10×) and 3 (3×) and 7 and 2 and 6 (5×) | LEFT THIGH THERMOGRAPHY 2/3 T0 (mean): 4.7 | LEFT THIGH THERMOGRAPHY 2/3 T15: 3 (7×) and 4 (11×) and 5 (3×) and 6 (3×) and 2 | LEFT THIGH THERMOGRAPHY 2/3 T15 (mean): 4.0 | LEFT THIGH THERMOGRAPHY 2/3 T30: 2 (6×) and 3 (12×) and 4 (6×) and 5 | LEFT THIGH THERMOGRAPHY 2/3 T30 (mean): 3.1 | LEFT THIGH THERMOGRAPHY 2/3 T60: 2 (9×) and 3 (11×) and 4 (4×) and 1 | LEFT THIGH THERMOGRAPHY 2/3 T60 (mean): 2.7 | LEFT THIGH THERMOGRAPHY 3/3 T0: 3 (3×) and 5 (3×) and 4 (16×) and 2 (2×) and 7 | LEFT THIGH THERMOGRAPHY 3/3 T0 (mean): 4.0 | LEFT THIGH THERMOGRAPHY 3/3 T15: 3 (7×) and 4 (11×) and 5 (3×) and 2 (4×) | LEFT THIGH THERMOGRAPHY 3/3 T15 (mean): 3.5 | LEFT THIGH THERMOGRAPHY 3/3 T30: 2 (7×) and 3 (11×) and 4 (5×) and 1 (2×) | LEFT THIGH THERMOGRAPHY 3/3 T30 (mean): 2.8 | LEFT THIGH THERMOGRAPHY 3/3 T60: 1 (3×) and 3 (11×) and 2 (10×) and 4 | LEFT THIGH THERMOGRAPHY 3/3 T60 (mean): 2.4 | RIGHT THIGH THERMOGRAPHY 1/3 T0: 5 (10×) and 4 (3×) and 7 (3×) and 3 (2×) and 6 (6×) and 8 | RIGHT THIGH THERMOGRAPHY 1/3 T0 (mean): 5.3 | RIGHT THIGH THERMOGRAPHY 1/3 T15: 5 (9×) and 4 (6×) and 7 (3×) and 3 (2×) and 6 (5×) | RIGHT THIGH THERMOGRAPHY 1/3 T15 (mean): 5.0 | RIGHT THIGH THERMOGRAPHY 1/3 T30: 2 (7×) and 4 (9×) and 3 (2×) and 5 (4×) and 6 (2×) and 7 | RIGHT THIGH THERMOGRAPHY 1/3 T30 (mean): 3.8 | RIGHT THIGH THERMOGRAPHY 1/3 T60: 2 (11×) and 3 (6×) and 4 (5×) and 5 (2×) and 6 | RIGHT THIGH THERMOGRAPHY 1/3 T60 (mean): 3.0 | RIGHT THIGH THERMOGRAPHY 2/3 T0: 4 (6×) and 5 (11×) and 7 and 3 (3×) and 6 (4×) | RIGHT THIGH THERMOGRAPHY 2/3 T0 (mean): 4.8 | RIGHT THIGH THERMOGRAPHY 2/3 T15: 3 (5×) and 4 (12×) and 5 (4×) and 6 (3×) and 2 | RIGHT THIGH THERMOGRAPHY 2/3 T15 (mean): 4.1 | RIGHT THIGH THERMOGRAPHY 2/3 T30: 2 (4×) and 3 (13×) and 4 (7×) and 5 | RIGHT THIGH THERMOGRAPHY 2/3 T30 (mean): 3.2 | RIGHT THIGH THERMOGRAPHY 2/3 T60: 2 (8×) and 3 (12×) and 4 (4×) and 1 | RIGHT THIGH THERMOGRAPHY 2/3 T60 (mean): 2.8 | RIGHT THIGH THERMOGRAPHY 3/3 T0: 3 (4×) and 5 (4×) and 4 (15×) and 2 and 7 | RIGHT THIGH THERMOGRAPHY 3/3 T0 (mean): 4.0 | RIGHT THIGH THERMOGRAPHY 3/3 T15: 3 (7×) and 4 (11×) and 5 (3×) and 2 (4×) | RIGHT THIGH THERMOGRAPHY 3/3 T15 (mean): 3.5 | RIGHT THIGH THERMOGRAPHY 3/3 T30: 2 (7×) and 3 (10×) and 4 (7×) and 1 | RIGHT THIGH THERMOGRAPHY 3/3 T30 (mean): 2.9 | RIGHT THIGH THERMOGRAPHY 3/3 T60: 1 (3×) and 3 (12×) and 2 (9×) and 4 | RIGHT THIGH THERMOGRAPHY 3/3 T60 (mean): 2.4
